Each block holds one compound with its values, some of them ahead of it.
Key:
[1] = molecular target: T1, Ubiquitin carboxyl-terminal hydrolase 7 (Homo sapiens, UniProt Q93009); test: Inhibition of human USP7 using ubiquitin-Rho110 as substrate incubated for 1 hrs
[2] = molecular target: T2, Ubiquitin carboxyl-terminal hydrolase 8 (Homo sapiens, UniProt P40818); test: Inhibition of USP8 (unknown origin)
T2 sequence (P40818 whole entry): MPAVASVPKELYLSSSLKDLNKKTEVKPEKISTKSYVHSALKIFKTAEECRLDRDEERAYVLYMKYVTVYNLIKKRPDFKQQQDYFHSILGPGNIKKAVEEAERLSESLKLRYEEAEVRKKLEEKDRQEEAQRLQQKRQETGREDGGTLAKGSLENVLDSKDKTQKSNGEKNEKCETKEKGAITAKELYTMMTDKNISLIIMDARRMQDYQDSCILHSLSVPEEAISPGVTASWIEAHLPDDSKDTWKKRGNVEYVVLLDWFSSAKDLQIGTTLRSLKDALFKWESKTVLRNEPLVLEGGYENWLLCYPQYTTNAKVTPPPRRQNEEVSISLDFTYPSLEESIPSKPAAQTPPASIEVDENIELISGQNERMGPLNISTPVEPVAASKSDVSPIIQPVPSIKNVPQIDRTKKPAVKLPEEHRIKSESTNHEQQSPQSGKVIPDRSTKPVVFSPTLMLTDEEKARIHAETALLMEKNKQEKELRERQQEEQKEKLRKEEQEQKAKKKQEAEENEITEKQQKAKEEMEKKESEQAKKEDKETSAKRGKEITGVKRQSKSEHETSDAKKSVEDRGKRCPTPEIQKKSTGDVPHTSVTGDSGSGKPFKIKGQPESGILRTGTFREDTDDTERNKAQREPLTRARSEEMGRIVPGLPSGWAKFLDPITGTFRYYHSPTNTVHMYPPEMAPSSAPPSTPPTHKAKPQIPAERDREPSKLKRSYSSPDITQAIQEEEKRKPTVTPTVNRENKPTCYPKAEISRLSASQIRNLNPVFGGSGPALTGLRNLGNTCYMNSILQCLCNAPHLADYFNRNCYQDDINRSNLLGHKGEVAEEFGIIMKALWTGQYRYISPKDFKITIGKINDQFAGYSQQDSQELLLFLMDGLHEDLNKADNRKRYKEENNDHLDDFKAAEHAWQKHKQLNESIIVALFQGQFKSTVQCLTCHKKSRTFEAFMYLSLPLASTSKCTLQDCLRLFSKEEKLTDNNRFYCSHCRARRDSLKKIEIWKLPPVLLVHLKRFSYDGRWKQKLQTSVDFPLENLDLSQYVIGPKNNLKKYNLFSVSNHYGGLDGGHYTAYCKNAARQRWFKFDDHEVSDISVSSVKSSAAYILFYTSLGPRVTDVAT

[3] = molecular target: T3, Ubiquitin carboxyl-terminal hydrolase 47 (Homo sapiens, UniProt Q96K76); test: Inhibition of USP47 (unknown origin)
T3 sequence (Q96K76 whole entry): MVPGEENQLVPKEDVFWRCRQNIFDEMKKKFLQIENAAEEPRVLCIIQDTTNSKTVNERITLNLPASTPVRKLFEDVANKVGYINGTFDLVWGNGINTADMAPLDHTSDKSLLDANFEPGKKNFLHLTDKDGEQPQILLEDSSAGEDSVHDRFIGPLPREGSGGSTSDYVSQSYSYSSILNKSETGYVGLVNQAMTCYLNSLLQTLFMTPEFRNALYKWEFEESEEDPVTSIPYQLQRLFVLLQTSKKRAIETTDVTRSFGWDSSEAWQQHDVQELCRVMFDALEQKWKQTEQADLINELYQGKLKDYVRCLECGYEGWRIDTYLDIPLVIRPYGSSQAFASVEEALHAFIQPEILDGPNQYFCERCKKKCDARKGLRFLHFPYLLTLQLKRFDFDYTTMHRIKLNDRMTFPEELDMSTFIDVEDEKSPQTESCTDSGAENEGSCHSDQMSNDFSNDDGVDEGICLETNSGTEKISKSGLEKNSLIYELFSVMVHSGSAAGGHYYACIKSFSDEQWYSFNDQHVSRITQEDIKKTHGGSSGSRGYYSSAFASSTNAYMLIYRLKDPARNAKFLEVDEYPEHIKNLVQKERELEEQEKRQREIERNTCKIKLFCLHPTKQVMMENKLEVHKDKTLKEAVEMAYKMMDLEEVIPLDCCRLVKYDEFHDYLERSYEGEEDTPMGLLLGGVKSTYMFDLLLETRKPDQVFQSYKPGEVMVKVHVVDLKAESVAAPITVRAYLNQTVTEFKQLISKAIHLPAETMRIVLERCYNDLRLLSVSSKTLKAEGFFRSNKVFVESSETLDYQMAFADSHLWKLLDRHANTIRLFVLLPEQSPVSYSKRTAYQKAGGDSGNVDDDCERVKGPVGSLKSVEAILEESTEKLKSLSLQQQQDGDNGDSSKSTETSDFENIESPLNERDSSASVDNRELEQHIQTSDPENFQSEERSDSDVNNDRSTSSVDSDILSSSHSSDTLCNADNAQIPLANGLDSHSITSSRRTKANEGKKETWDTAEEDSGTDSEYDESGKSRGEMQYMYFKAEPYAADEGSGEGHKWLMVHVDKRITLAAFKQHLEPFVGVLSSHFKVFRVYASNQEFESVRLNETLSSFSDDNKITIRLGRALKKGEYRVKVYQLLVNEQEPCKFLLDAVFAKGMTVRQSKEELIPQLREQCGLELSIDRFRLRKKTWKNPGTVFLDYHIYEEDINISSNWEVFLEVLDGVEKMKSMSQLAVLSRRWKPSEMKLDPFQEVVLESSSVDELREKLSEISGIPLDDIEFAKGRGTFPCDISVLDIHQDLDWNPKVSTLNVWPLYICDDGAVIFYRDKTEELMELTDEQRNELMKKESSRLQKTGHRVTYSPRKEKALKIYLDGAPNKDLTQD

[4] = molecular target: T4, Ubiquitin carboxyl-terminal hydrolase 2 (Homo sapiens) (UniProt O75604); test: Inhibition of human USP2 (258 to 605 residues) catalytic domain assessed as inhibition constant by fluorescence based assay
T4 sequence (whole entry): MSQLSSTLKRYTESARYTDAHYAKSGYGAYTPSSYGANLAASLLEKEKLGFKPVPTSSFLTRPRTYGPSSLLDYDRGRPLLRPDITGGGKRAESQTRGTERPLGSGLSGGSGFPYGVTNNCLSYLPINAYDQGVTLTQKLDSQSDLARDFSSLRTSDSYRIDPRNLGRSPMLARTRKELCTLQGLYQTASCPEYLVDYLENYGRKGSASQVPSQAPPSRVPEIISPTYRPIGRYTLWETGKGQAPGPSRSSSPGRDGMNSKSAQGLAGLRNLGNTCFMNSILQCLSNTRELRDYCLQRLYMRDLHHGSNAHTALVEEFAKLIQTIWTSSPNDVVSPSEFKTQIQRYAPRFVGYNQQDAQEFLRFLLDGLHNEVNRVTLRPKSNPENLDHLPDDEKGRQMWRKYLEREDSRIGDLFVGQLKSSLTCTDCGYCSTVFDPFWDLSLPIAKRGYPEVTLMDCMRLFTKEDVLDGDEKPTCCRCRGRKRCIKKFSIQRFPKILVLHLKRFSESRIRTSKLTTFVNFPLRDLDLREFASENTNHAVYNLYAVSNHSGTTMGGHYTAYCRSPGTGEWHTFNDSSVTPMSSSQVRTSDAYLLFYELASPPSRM

[5] = molecular target: T5, Ubiquitin carboxyl-terminal hydrolase 28 (Homo sapiens, UniProt Q96RU2); test: Inhibition of USP28 (unknown origin) using […] as substrate by […] analysis
T5 sequence (Q96RU2 whole entry): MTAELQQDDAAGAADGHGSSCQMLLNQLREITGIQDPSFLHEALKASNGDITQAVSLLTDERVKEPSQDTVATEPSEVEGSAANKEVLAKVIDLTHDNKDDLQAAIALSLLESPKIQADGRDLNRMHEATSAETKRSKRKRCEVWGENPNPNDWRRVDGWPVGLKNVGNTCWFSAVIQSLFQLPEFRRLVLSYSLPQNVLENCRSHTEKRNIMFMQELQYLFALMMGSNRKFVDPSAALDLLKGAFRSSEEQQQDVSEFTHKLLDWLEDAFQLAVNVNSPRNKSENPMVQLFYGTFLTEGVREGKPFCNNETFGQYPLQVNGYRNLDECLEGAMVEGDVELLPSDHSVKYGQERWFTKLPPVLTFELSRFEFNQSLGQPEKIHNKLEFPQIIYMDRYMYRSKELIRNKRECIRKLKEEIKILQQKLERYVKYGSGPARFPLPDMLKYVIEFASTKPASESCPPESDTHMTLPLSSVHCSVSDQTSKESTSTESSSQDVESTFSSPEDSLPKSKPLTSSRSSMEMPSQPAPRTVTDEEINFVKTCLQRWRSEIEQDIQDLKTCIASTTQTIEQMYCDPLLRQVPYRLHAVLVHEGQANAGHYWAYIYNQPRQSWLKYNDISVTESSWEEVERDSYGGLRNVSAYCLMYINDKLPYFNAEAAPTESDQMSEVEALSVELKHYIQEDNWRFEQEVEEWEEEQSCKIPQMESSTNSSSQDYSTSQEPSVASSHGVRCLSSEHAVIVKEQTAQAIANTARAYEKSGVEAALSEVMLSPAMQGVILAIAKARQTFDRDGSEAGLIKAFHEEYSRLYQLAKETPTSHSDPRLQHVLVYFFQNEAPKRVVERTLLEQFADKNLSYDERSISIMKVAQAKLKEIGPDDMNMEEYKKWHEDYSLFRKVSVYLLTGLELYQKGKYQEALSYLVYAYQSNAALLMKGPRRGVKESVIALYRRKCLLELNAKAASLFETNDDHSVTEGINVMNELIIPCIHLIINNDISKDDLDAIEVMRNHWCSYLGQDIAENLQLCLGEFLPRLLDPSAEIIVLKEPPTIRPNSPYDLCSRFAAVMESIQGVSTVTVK

[6] = molecular target: T6, Ubiquitin carboxyl-terminal hydrolase 25 (Homo sapiens, UniProt Q9UHP3); test: Inhibition of USP25 (unknown origin) using […] as substrate by […] analysis
T6 sequence (Q9UHP3 whole entry): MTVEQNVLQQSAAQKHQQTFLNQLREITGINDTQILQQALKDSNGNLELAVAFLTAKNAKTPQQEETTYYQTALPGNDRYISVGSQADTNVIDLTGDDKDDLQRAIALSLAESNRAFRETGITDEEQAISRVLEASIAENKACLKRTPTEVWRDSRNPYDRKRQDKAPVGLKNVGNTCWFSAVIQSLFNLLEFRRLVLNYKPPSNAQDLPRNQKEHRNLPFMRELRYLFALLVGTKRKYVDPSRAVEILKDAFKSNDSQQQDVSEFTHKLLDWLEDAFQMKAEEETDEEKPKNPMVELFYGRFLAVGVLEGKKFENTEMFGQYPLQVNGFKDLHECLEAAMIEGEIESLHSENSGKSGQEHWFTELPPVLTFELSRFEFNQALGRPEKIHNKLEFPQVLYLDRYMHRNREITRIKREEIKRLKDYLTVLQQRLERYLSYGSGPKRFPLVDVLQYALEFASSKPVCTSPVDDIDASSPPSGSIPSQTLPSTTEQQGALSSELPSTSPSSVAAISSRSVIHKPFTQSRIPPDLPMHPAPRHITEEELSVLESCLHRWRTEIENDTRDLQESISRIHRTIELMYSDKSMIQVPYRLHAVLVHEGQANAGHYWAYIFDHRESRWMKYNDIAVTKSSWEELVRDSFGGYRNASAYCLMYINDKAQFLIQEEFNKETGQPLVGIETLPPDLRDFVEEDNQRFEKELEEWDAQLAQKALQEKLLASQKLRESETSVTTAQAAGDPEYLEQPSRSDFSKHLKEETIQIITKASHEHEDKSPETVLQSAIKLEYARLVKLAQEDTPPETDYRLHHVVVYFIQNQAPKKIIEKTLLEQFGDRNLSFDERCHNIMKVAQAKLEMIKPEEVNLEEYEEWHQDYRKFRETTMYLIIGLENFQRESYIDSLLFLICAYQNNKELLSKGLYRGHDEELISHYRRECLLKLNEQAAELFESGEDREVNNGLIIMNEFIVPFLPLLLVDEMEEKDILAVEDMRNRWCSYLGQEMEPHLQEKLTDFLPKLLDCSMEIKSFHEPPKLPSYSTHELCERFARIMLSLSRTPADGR

[7] = molecular target: T1, Ubiquitin carboxyl-terminal hydrolase 7; test: Inhibition of USP7 (unknown origin)
[8] = molecular target: T1, Ubiquitin carboxyl-terminal hydrolase 7; test: Inhibition of human USP7 using Ub-AMC as substrate
[9] = molecular target: T7, Ubiquitin carboxyl-terminal hydrolase 2 (Homo sapiens, UniProt O75604); test: Inhibition of human USP2 (258 to 605 residues) catalytic domain by fluorescence based assay
T7 sequence (O75604 whole entry): T4 sequence (whole entry)

T1 sequence (Q93009 whole entry): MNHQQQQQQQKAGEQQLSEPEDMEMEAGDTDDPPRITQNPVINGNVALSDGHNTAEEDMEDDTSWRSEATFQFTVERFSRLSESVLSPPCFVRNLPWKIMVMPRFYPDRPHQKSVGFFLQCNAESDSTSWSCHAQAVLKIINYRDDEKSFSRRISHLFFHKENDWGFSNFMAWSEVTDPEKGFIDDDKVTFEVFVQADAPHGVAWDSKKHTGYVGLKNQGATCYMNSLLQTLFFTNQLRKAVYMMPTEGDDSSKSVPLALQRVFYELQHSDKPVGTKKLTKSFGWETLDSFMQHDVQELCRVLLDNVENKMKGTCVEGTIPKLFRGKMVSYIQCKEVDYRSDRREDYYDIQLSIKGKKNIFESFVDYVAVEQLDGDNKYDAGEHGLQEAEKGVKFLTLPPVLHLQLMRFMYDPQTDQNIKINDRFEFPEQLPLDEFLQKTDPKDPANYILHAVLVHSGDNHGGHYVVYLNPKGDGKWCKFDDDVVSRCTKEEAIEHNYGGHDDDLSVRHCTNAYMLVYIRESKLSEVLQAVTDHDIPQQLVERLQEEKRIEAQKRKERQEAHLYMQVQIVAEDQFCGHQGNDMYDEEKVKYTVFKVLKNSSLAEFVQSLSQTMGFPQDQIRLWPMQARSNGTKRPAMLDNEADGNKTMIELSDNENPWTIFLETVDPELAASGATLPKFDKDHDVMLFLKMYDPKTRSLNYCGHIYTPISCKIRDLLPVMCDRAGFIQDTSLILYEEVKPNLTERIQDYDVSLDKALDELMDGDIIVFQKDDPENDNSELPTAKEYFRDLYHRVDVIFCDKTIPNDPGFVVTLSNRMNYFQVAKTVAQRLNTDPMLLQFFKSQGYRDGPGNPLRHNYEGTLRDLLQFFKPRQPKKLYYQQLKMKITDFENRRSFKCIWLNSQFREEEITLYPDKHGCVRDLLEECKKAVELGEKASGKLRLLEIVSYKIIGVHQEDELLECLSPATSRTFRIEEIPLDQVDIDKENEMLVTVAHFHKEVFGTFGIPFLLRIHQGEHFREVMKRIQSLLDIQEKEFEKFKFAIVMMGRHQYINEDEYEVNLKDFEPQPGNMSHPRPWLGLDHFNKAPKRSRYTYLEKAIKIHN

IC50 [2]: > 100 µM
IC50 [3]: > 100 µM
Compound: CO/C(O)=C(\C#N)c1nc2c(nc1C#N)C(=O)c1ccccc1-2

IC50 [7]: 2 µM
Compound: CC(=O)c1cc([N+](=O)[O-])c(Sc2c(Cl)cncc2Cl)s1

IC50 [9]: > 100 µM
Compound: Sc1ncnc2nc[nH]c12 [MERCAPTOPURINE ANHYDROUS]

IC50 [1]: 42 µM
Compound: CC(=O)Nc1cccc(-c2cnc(N)c(-c3ccc(O)cc3)c2C)c1

Continued, compound first:

Compound: CCc1c(-c2cccc(NC(C)=O)c2)cnc(N)c1-c1cccs1
IC50 [1]: > 63.3 µM

Compound: Nc1nc2[nH]cnc2c(=S)[nH]1
Kis [4]: 24.6 µM

Compound: OCCNCc1cc(Br)ccc1OCc1ccccc1
IC50 [5]: 59.6 µM
IC50 [6]: 52.5 µM

Compound: N#Cc1nc2c(nc1C#N)-c1ccc(Cl)cc1C2=O
IC50 [2]: 0.96 µM
IC50 [8]: 0.4 µM
IC50 [3]: 0.4 µM

Compound: Nc1nc2nc[nH]c2c(=S)[nH]1 [THIOGUANINE]
IC50 [9]: 42 µM

Compound: OCCNCc1cc(Br)ccc1OCc1cccc(OC(F)(F)F)c1
IC50 [5]: 1.1 µM
IC50 [6]: 0.88 µM

Compound: OCCNCc1cc(Br)ccc1OCc1cc(F)c(F)cc1F
IC50 [5]: 2 µM

From ChEMBL document CHEMBL5233229, “Recent advances in the development of ubiquitin-specific-processing protease 7 (USP7) inhibitors” (Eur J Med Chem, 2020)
